Patent US12263248B2, “Compounds and compositions for intracellular delivery of therapeutic agents” (ModernaTX, Inc., priority 2018, dated 2025)

Columns and labels:
[1] = tested on: luciferase (Luc) mRNA; experiment: Luc expression, whole body bioluminescence after intravenous administration to mice; type: in vivo; conditions: for Total Flux 3 hours / Total Flux 6 hours / Total Flux 24 hours: mice, i.v., 0.5 mg/kg, Luc mRNA; for Fold increase in total body Luc Flux relative to MC3 at 6 h: Table 3A; for flux measured at 6 h relative to the MC3 formulation: in words
Method: In order to monitor how effectively various nanoparticle compositions deliver therapeutic and/or prophylactics to targeted cells, different nanoparticle compositions including a particular therapeutic and/or prophylactic (for example, a modified or naturally occurring RNA such as an mRNA) are prepared and administered to rodent populations. Mice are intravenously, intramuscularly, intraarterially, or intratumorally administered a single dose including a nanoparticle composition with a formulation such as those provided in Example 3. In some instances, mice may be made to inhale doses. Dose sizes may range from 0.001 mg/kg to 10 mg/kg, where 10 mg/kg describes a dose including 10 mg of a therapeutic and/or prophylactic in a nanoparticle composition for each 1 kg of body mass of the mouse. A control composition including PBS may also be employed.
Upon administration of nanoparticle compositions to mice, dose delivery profiles, dose responses, and toxicity of particular formulations and doses thereof can be measured by enzyme-linked immunosorbent assays (ELISA), bioluminescent imaging, or other methods. For nanoparticle compositions including mRNA, time courses of protein expression can also be evaluated. Samples collected from the rodents for evaluation may include blood, sera, and tissue (for example, muscle tissue from the site of an intramuscular injection and internal tissue); sample collection may involve sacrifice of the animals.
The efficacy of the nanoparticle compositions presented in Table 1A was evaluated with a bioluminescence study. Formulations were administered intravenously to mice (n=6) at a dosage of 0.5 mg/kg (mpk) and bioluminescence measured at 3, 6, and 24 hour time points. The standard MC3 formulation and, in some instances, a control (e.g., a PBS control) were evaluated for comparison. […] In general, flux decreased as time progressed to less than 10% of the initial flux.
(§1) Whole body and ex vivo organ bioluminescent imaging of mice: CD-1 mice were injected 15 minutes prior to the imaging timepoint intraperitoneally (IP) with 200 μL Xenolight D-luciferin K+ salt, diluted in PBS just prior to use to a concentration of 15 mg/mL. Ex vivo imaging of organs was completed within 25 minutes of luciferin administration. All images were quantified by region of interest for total flux.

[2] = tested on: luciferase (Luc) mRNA; experiment: Luc expression in liver, lung, spleen and femur 6 hours after intravenous administration; type: in vivo; conditions: mice, 0.5 mpk; for Total Flux Liver / Total Flux Lung / Total Flux Spleen: intravenous; for Flux in the spleen: i.v., in words
Method: The efficacy of the nanoparticle compositions presented in Table 1A was further evaluated by measuring the expression of modified luciferase in the liver, lung, spleen, and femur upon administration of a given composition. Formulations were administered intravenously to mice (n=3) at a dosage of 0.5 mpk and bioluminescence measured after 6 hours. The standard MC3 formulation and a PBS control were also tested. […] Flux in the liver was lowest for compositions including Compounds 58, 59, 137, and 141. Flux in the spleen was highest for compositions including Compounds 4, 7, 33, 34, 48, 53, 108, 129, 130, and 148, and lowest for compositions including Compounds 9, 59, 124, and 141.
as §1

[3] = Encapsulation efficiency of RNA (QUANT-IT RIBOGREEN RNA assay); type: physicochemical; conditions: Table 1A
Method: For nanoparticle compositions including an RNA, a QUANT-IT™ RIBOGREEN® RNA assay (Invitrogen Corporation Carlsbad, CA) can be used to evaluate the encapsulation of an RNA by the nanoparticle composition. The samples are diluted to a concentration of approximately […] in a TE buffer solution (10 mM Tris-HCl, 1 mM EDTA, pH 7.5). 50 μL of the diluted samples are transferred to a polystyrene 96 well plate and either 50 μL of TE buffer or 50 μL of a 2% Triton X-100 solution is added to the wells. The plate is incubated at a temperature of 37° C. for 15 minutes. The RIBOGREEN® reagent is diluted 1:100 in TE buffer, and 100 μL of this solution is added to each well. The fluorescence intensity can be measured using a fluorescence plate reader (Wallac Victor 1420 Multilabel Counter; Perkin Elmer, Waltham, MA) at an excitation wavelength of, for example, about 480 nm and an emission wavelength of, for example, about 520 nm. The fluorescence values of the reagent blank are subtracted from that of each of the samples and the percentage of free RNA is determined by dividing the fluorescence intensity of the intact sample (without addition of Triton X-100) by the fluorescence value of the disrupted sample (caused by the addition of Triton X-100).

[4] = Particle size and polydispersity index of nanoparticle compositions (Zetasizer Nano ZS); type: physicochemical; conditions: Table 1A; for Size (nm): lipid:DSPC:cholesterol:PEG-DMG 50:10:38.5:1.5 mol %
Method: A Zetasizer Nano ZS (Malvern Instruments Ltd, Malvern, Worcestershire, UK) can be used to determine the particle size, the polydispersity index (PDI) and the zeta potential of the nanoparticle compositions in 1×PBS in determining particle size and 15 mM PBS in determining zeta potential.

[5] = Apparent (surface) pKa of the LNP formulation (TNS assay); type: physicochemical; conditions: Table 1A
Method: Using sodium hydroxide (1 M) and hydrochloric acid (1 M), 21 unique buffers were prepared from the master buffer stock at pH values between about 3 and 12. Next, a stock of 300 μM 6-(p-Toluidino)-2-naphthalenesulfonic acid sodium salt (TNS reagent) in DMSO was prepared and the LNP was mixed with the desired formulation buffer at a concentration of 0.04 mg/mL mRNA. This assay has been validated in 1× PBS and 20 mM Tris w/8% sucrose buffer. The buffer solutions at various pH values were added to a 96-well plate in triplicate for each pH. To each well was added 3.26 μL of LNP sample at a mRNA concentration of 0.04 mg/mL and 2.0 μL of 300 μM TNS reagent solution. After careful mixing, the resulting fluorescence values were read for each plate to create a sigmoidal plot of the fluorescence values vs. buffer pH. The […] inflection point of this curve is the apparent pKa of the LNP formulation.

| SMILES | Total Flux 3 hours [1] | Total Flux 6 hours [1] | Total Flux 24 hours [1] | Total Flux Liver [2] | Total Flux Lung [2] | Total Flux Spleen [2] | EE (%) [3] [%] | PDI [4] | Size (nm) [4] [nm] | pKa [5] | Lipid/MC3 AUC ([1]; Table 3D, intravenous) | AUC (p/s * h) ([1]; Table 3D, intravenous, Luc) | Fold increase in total body Luc Flux relative to MC3 at 6 h ([1]; i.v. administration) | flux measured at 6 h relative to the MC3 formulation ([1]; i.v. administration) | Flux in the spleen [2] | 6 h Lipid/MC3 Avg. Luc Expression ([1]; Table 3C, i.v. administration) | Fold increase AUC Lipid/MC3 ([1]; Table 3C, i.v. administration) | AUC (h * p/s) ([1]; Table 3C, i.v. administration, Luc) |
| --- | --- | --- | --- | --- | --- | --- | --- | --- | --- | --- | --- | --- | --- | --- | --- | --- | --- | --- |
| CCCCCCCCC(C)OC(=O)CCCN(CCO)CCCCCCCC(=O)OC(CCCCCCCC)CCCCCCCC (centres unmarked) [Compound 70, Heptadecan-9-yl 8-((4-(decan-2-yloxy)-4-oxobutyl)(2-hydroxyethyl)amino)octanoate] | 4.70E+10 | 2.49E+10 | 9.27E+08 | 8.55E+08 | 6.32E+06 | 2.06E+06 | 97.5 | 0.15 | 73.7 | 6.51 |  |  |  |  |  |  |  |  |
| CCCCCCCCCOC(=O)CCCCCCCN(CCCCCCCC(=O)OC(CCCCCCCC)CCCCCCCC)CCOCCO [Compound 154, Heptadecan-9-yl 8-((2-(2-hydroxyethoxy)ethyl)(8-(nonyloxy)-8-oxooctylamino octanoate] | 2.49E+09 | 4.89E+09 | 6.26E+07 | 3.62E+08 | 2.89E+06 | 1.30E+07 | 94.28 | 0.110 | 92.9 | 6.827 | 0.29 | 5.560E+010 |  |  |  |  |  |  |
| CCCCCCCCC(CCCCCCCC)OC(=O)CCCCCCCN(CCO)CCCC(=O)OCC1CC1CCCCCC (centres unmarked) [Compound 55, heptadecan-9-yl 8-((4-((2-hexylcyclopropyl)methoxy)-4-oxobutyl)(2-hydroxyethyl)amino)octanoate] | 5.07E+10 | 1.68E+10 | 4.06E+08 | 1.92E+09 | 7.02E+06 | 2.63E+07 | 97.03 | 0.16 | 91.6 | 6.44 |  |  | 1.52 | higher flux than MC3 formulations |  |  |  |  |
| CCCCCCCCCOC(=O)CCCCCCCN(CCO)CCCCCCCC(=O)OC(C)CCCCCCCC (centres unmarked) [Compound 36, decan-2-yl 8-((2-hydroxyethyl)(8-(nonyloxy)-8-oxooctyl)amino) octanoate] | 6.97E+07 | 1.72E+08 | 4.44E+05 | 2.65E+07 | 5.82E+05 | 6.14E+07 | 81.45 | 0.17 | 163.5 | 7.38 |  |  | 0.004 |  |  |  |  |  |
| CCCCCCCCC(C)OC(=O)CCCCCCCN(CCO)CCCCCCCC(=O)N(CCCCCCCC)CCCCCCCC (centres unmarked) [Compound 130, Decan-2-yl 8-((8-(dioctylamino)-8-oxooctyl)(2-hydroxyethyl)amino)octanoate] | 6.26E+10 | 8.92E+10 | 1.08E+09 | 8.17E+09 | 5.88E+07 | 1.35E+09 | 97 | 0.13 | 107.1 | 6.83 |  |  | 4.02 |  | highest |  |  |  |
| CCCCCCCCCCCOC(=O)CCCCCN(CCO)CCCCCCCC(=O)N(CCCCCCCC)CCCCCCCC [Compound 129, Undecyl 6-((8-(dioctylamino)-8-oxooctyl)(2-hydroxyethyl)amino)hexanoate] | 5.97E+09 | 4.51E+09 | 2.22E+08 | 6.65E+08 | 9.89E+06 | 5.09E+08 | 77.2 | 0.19 | 86.3 | 7.3 |  |  | 0.203 |  | highest |  |  |  |
| CCCCCCCCC(CCCCCCCC)OC(=O)CCCCCCCN(CCO)CCCCCCCC(=O)N(C)CCCCCCCC [Compound 145, Heptadecan-9-yl 8-((2-hydroxyethyl)(8-(methyl(octyl)amino)-8-oxooctyl)amino)octanoate] | 7.11E+09 | 6.50E+09 | 2.38E+08 | 5.01E+08 | 1.36E+07 | 4.25E+08 | 89.15 | 0.140 | 176.5 | 7.25 |  |  |  |  |  | 0.89 | 0.983 | 8.1E+10 |
| CCCCCCCCC(CCCCCCCC)OC(=O)CCCCCCCN(CCO)CCCC(=O)OCCCCCCC [Compound 54, heptadecan-9-yl 8-((4-(heptyloxy)-4-oxobutyl)(2-hydroxyethyl)amino) octanoate] | 5.36E+10 | 4.18E+10 | 9.07E+08 | 5.57E+09 | 1.12E+07 | 1.64E+08 | 96.71 | 0.19 | 112.9 | 6.51 |  |  | 3.80 | higher flux than MC3 formulations |  |  |  |  |
| CCCCCCCCCOC(=O)CCCCCCCN(CCO)CCCCCCCC(=O)OC1CCCCCCCCCCCCCC1 [Compound 81, Cyclopentadecyl 8-((2-hydroxyethyl)(8-(nonyloxy)-8-oxooctyl)amino)octanoate] | 7.87E+09 | 9.96E+09 | 5.13E+08 | 2.74E+08 | 6.23E+06 | 4.49E+07 | 95.4 | 0.14 | 99.2 | 7.14 |  |  |  |  |  |  |  |  |
